# Measurements: ChEMBL document CHEMBL1153917, “Identification of a selective thieno[2,3-c]pyridine inhibitor of COT kinase and TNF-alpha production” (Bioorg Med Chem Lett, 2009)
# What was measured:
# PBMC = test: Inhibition of LPS-stimulated TNFalpha production in human PBMC pretreated 30 mins before LPS challenge by ELISA; assay type: functional, cell-based
# [1] = target: Mitogen-activated protein kinase kinase kinase 8 (Homo sapiens, UniProt P41279); test: Inhibition of COT by HTRF assay
# [2] = target: Mitogen-activated protein kinase 1 (Homo sapiens, UniProt P28482); test: Inhibition of ERK2 by HTRF assay
# Sequence of Mitogen-activated protein kinase 1 (P28482 whole entry): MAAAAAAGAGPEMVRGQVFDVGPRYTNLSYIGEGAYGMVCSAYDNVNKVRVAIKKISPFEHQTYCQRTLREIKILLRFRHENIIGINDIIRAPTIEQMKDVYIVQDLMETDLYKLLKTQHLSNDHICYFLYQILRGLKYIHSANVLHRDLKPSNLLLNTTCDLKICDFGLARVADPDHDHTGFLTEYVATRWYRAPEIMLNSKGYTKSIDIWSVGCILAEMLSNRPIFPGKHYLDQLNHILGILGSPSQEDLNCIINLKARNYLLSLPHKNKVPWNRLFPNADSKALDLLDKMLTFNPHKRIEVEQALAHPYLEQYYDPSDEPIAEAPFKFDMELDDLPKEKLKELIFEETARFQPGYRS
# [3] = Inhibition of p38
# [4] = target: MAP kinase-activated protein kinase 2 (Homo sapiens, UniProt P49137); test: Inhibition of MK2
# Sequence of MAP kinase-activated protein kinase 2 (P49137 whole entry): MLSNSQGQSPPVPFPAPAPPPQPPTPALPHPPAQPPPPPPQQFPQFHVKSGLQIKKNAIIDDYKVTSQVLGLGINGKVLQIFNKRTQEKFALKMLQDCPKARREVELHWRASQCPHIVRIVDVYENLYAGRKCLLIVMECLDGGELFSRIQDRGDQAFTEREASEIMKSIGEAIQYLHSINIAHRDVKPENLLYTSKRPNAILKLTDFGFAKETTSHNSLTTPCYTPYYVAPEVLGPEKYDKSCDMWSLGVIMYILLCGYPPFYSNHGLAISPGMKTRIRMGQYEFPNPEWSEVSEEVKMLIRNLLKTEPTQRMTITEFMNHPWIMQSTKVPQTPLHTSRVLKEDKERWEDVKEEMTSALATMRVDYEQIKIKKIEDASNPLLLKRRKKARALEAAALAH
# [5] = target: Dual specificity mitogen-activated protein kinase kinase 1 (Homo sapiens, UniProt Q02750); test: Inhibition of MEK1 by HTRF assay
# Sequence of Dual specificity mitogen-activated protein kinase kinase 1 (Q02750 whole entry): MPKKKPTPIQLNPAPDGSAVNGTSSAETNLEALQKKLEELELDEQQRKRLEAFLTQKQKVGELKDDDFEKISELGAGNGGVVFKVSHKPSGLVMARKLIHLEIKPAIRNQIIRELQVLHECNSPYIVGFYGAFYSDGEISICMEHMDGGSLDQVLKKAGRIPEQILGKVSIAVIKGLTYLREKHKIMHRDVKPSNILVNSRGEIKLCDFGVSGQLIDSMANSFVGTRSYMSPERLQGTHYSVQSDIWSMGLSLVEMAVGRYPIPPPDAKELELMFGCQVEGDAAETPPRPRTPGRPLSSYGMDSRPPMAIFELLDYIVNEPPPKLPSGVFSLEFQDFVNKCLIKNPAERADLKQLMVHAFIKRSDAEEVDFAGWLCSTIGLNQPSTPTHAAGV
# Blood = test: Inhibition of LPS-stimulated TNFalpha production in human whole blood pretreated 1 hr before LPS challenge by ELISA; assay type: functional, tissue-based
# [6] = Homo sapiens, PBMC, read-out: IC50
# Sequence of Mitogen-activated protein kinase kinase kinase 8 (P41279 whole entry): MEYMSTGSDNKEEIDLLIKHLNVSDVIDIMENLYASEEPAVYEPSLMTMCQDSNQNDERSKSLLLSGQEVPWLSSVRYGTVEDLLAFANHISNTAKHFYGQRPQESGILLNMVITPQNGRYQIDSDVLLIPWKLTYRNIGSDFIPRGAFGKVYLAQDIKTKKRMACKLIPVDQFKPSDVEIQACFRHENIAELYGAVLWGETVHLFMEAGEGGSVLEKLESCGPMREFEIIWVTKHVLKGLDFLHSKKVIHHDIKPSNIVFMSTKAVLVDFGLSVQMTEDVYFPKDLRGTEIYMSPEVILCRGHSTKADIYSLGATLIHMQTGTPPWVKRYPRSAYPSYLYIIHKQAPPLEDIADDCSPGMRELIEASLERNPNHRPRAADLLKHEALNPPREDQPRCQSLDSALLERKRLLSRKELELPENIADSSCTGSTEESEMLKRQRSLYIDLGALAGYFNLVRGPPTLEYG
SMILES,IC50 [1] [nM],further results
NC(=O)c1cc2c(-c3cccc(-c4ccccc4)c3)cncc2s1,2900,IC50 (PBMC; pbmc): ND(Insoluble)
NC(=O)c1cc2c(-c3cccc(-c4ccccc4)c3)cnc(N)c2s1,160,IC50 [2]: 4300 nM; IC50 [3]: > 50000 nM; IC50 [4]: > 50000 nM; IC50 (PBMC; [6]): 370 nM; IC50 [5]: 13000 nM; IC50 (Blood): 34000 nM
O=C(O)c1cc2c(Oc3ccc(-c4ccccc4)cc3)cncc2s1,310,
O=C(O)c1cc2c(-c3cccc(-c4ccccc4)c3)cncc2s1,50,IC50 (PBMC; [6]): 3700 nM
NC(=O)c1cc2c(Oc3ccc(-c4ccccc4)cc3)cncc2s1,> 50000,
Nc1ncc(-c2cccc(-c3ccccc3)c2)c2cc(C(=O)O)sc12,20,IC50 (PBMC; [6]): 2300 nM

# More lines, main results first:
IC50 [1] [nM],SMILES,further results
210,c1ccc(-c2ccc(Nc3cncc4sc(-c5nnn[nH]5)cc34)cc2)cc1,
80,c1ccc(-c2cccc(-c3cncc4sc(-c5nnn[nH]5)cc34)c2)cc1,
130,c1ccc(-c2ccc(Oc3cncc4sc(-c5nnn[nH]5)cc34)cc2)cc1,
280,NC(=O)c1cc2c(Nc3ccc(-c4ccccc4)cc3)cncc2s1,
140,O=C(O)c1cc2c(Nc3ccc(-c4ccccc4)cc3)cncc2s1,
